Assay results as given in patent US20030064434A1, “Novel G Protein-coupled receptor, GAVE1” (Aventis Pharmaceuticals, Inc., priority 2001, published 2003).

What was measured:
GAVE1 (Homo sapiens) = assay: FLIPR assay, change in fluorescence of GAVE1 expressing CHO cells; assay type: cell-based; settings: CHO cells expressing GAVE1, increasing amounts of ligand; untransformed CHO cells show control level
Text: To screen for agonists of human GAVE1, hGAVE1 is artificially coupled to a Gq signaling package. Activation of the Gq mechanism stimulates the release of Ca^2+ from sarcoplasmic reticulum vesicles within the cell. The Ca^2+ is released into the cytoplasm where it can be detected using Ca^2+ chelating dyes. A Fluorometric Imaging Plate Reader or FLIPR® apparatus (Molecular Devices) is used to monitor any resulting changes in fluorescence. The activity of an agonist is reflected by an increase in fluorescence.
CHO-K1 cells expressing hGAVE1 are pre-engineered to express an indiscriminate form of Gq protein (Gα16). […]
A compound library containing possible agonists will be tested at 10 μM concentration in physiological salt buffer. Changes in fluorescence are measured for 10 seconds prior to compound addition. After the addition of the compound, fluorescence is measured every second for the first minute followed by exposures taken every six seconds for a total experimental analysis time of three minutes. […] The maximum fluorescence changes for the first 80 scans is recorded as a measure of agonist activity and compared to the maximum fluorescence change induced by 10 μM ATP (Sigma A9062).

[1] = tested on: GAVE1 expression in rat cardiac myocytes; assay: Northern blot of GAVE1 RNA levels in cardiomyocytes exposed to phenylephrine; assay type: cell-based; settings: rat cardiac myocytes stimulated 48 hours with 10^-5 M phenylephrine; compared to control (untreated) or vehicle-treated myocytes
Procedure: FIG. 7 is a computer representation of a Northern blot depicting GAVE1 RNA levels of cardiomyocytes expressing GAVE1 exposed to medium, vehicle and vehicle containing phenylephrine.
Northern blot analysis is performed on RNA derived from several human tissue samples to determine whether the tissues express the hGAVE1 receptor gene. The probe used is P^32-labeled hGAVE1 cDNA.
P32-labeled hGAVE1 cDNA is prepared as follows. Twenty-five ng hGAVE1 cDNA prepared as described above is resuspended to 45 μl of 10 mM Tris-HCl, pH 7.5; 1 mM EDTA in a microfuge tube and heated at 95° C. for 5 minutes. The tube then is chilled on ice for another 5 minutes. Following chilling, the mixture contained in the tube is resuspended with the 45 μl GAVE1 cDNA and buffer as described above and mixed with RTS Rad Prime Mix (supplied with the RTS Rad Prime DNA-labeling System) (Life Technologies, Catalog No. 10387-017). Five μl of P^32-labeled α-dCTP, specific activity: 3000 Ci/mM, (Amersham, AA0005) is added while mixing gently but thoroughly. The resulting mixture is incubated at 37° C. for 10 minutes. Incubation is stopped by the addition of 5 μl of 0.2 M EDTA, pH 8.0. Incorporation of the radioactive alpha-dCTP into the hGAVE1 cDNA is evaluated by taking a 5 μl aliquot of the mixture and counting the radioactivity. […]

Chain of GAVE1 (Homo sapiens) (P21453 whole entry): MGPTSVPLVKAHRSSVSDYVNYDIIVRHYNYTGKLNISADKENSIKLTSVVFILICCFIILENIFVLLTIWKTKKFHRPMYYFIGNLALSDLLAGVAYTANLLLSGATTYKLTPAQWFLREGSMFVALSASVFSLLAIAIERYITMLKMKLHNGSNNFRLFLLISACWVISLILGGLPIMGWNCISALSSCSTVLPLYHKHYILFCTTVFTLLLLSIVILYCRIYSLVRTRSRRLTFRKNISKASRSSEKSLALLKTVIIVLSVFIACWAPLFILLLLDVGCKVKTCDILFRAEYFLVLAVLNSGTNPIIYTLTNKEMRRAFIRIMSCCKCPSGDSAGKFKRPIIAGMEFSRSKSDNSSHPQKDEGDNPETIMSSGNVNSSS

Structure (SMILES) | change in fluorescence (GAVE1 activity) (GAVE1 (Homo sapiens)) | level of GAVE1 expression [1]
CCCCCCCCCCCCC/C=C/[C@@H](O)[C@@H](N)COP(=O)(O)O [S1P, sphingosine-1-phosphate] | positive correlation of activity with increasing amounts of ligand | –
CNC[C@H](O)c1cccc(O)c1 [phenylephrine] | – | up-regulated several-fold
